Results reported in patent publication US9394282B2, “Pyrazole carboxamides as Janus kinase inhibitors” (Merck Sharp & Dohme Corp., priority 2011, dated 2016).

molecular target: JAK1 (Homo sapiens (Human), UniProt P23458); assay: Jak biochemical HTRF assay, JAK1; details: recombinant purified GST-tagged catalytic domain; HTRF format; [ATP] 31.8 μM
Excerpt: Jak Biochemical HTRF Assay Protocol
Subsequent reagent additions employed an Agilent Bravo.

JAK1, sequence (P23458 875-1153): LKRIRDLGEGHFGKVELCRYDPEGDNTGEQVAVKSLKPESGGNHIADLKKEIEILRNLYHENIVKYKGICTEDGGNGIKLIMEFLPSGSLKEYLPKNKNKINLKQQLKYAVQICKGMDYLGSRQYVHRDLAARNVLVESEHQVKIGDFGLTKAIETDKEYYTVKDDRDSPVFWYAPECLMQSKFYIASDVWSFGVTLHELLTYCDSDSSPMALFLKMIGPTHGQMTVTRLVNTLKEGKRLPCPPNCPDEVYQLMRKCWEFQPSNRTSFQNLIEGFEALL

SMILES | IC50
N#C[C@@H]1CCN(C(=O)OC2CCOCC2)CC1n1cc(C(N)=O)c(Nc2ccc(F)cc2)n1 (mixture of isomers) [Example 5-85, tetrahydro-2H-pyran-4-yl (3S,4R and 3R,4S)-3-{4-carbamoyl-3-[(4-fluorophenyl)amino]-1H-pyrazol-1-yl}-4-cyanopiperidine-1-carboxylate] | 0.006 µM
CCOC(=O)N1CC[C@H](n2cc(C(N)=O)c(Nc3ccc(F)cc3)n2)[C@H](C#N)C1 (racemic) [Example 5-44, ethyl (3R,4S and 3S,4R)-4-{4-carbamoyl-3-[(4-fluorophenyl)amino]-1H-pyrazol-1-yl}-3-cyanopiperidine-1-carboxylate] | 0.2 µM
CC(C)(C#N)COC(=O)N1CC[C@@H](n2cc(C(N)=O)c(Nc3ccc(F)cc3)n2)[C@H](C#N)C1 (racemic) [Example 5-6, 2-cyano-2-methylpropyl (3R,4R and 3S,4S)-4-{4-carbamoyl-3-[(4-fluorophenyl)amino]-1H-pyrazol-1-yl}-3-cyanopiperidine-1-carboxylate] | 0.015 µM
CCOC(=O)N1CC[C@@H](n2cc(C(N)=O)c(Nc3ccc(F)cc3)n2)[C@H](C#N)C1 (racemic) [Example 5-23, ethyl (3R,4R and 3S,4S)-4-{4-carbamoyl-3-[(4-fluorophenyl)amino]-1H-pyrazol-1-yl}-3-cyanopiperidine-1-carboxylate] | 0.01 µM
N#C[C@@H]1CCN(C(=O)OCCC2CC2)CC1n1cc(C(N)=O)c(Nc2ccc(F)cc2)n1 (mixture of isomers) [Example 5-91, 2-cyclopropylethyl (3S,4R and 3R,4S)-3-{4-carbamoyl-3-[(4-fluorophenyl)amino]-1H-pyrazol-1-yl}-4-cyanopiperidine-1-carboxylate] | 0.001 µM
N#C[C@@H]1CN(C(=O)OCCN2CCOCC2)CC[C@H]1n1cc(C(N)=O)c(Nc2ccc(F)cc2)n1 (racemic) [Example 5-4, 2-morpholin-4-ylethyl (3R,4R and 3S,4S)-4-{4-carbamoyl-3-[(4-fluorophenyl)amino]-1H-pyrazol-1-yl}-3-cyanopiperidine-1-carboxylate] | 0.029 µM
N#C[C@@H]1CN(C(=O)OCC(F)F)CC[C@@H]1n1cc(C(N)=O)c(Nc2ccc(F)cc2)n1 (racemic) [Example 5-65, 2,2-difluoroethyl (3R,4S and 3S,4R)-4-{4-carbamoyl-3-[(4-fluorophenyl)amino]-1H-pyrazol-1-yl}-3-cyanopiperidine-1-carboxylate] | 0.083 µM
N#C[C@@H]1CN(C(=O)OCCN2CCCC2=O)CC[C@H]1n1cc(C(N)=O)c(Nc2ccc(F)cc2)n1 (racemic) [Example 5-15, 2-(2-oxopyrrolidin-1-yl)ethyl (3R,4R and 3S,4S)-4-{4-carbamoyl-3-[(4-fluorophenyl)amino]-1H-pyrazol-1-yl}-3-cyanopiperidine-1-carboxylate] | 0.019 µM
N#C[C@@H]1CCN(C(=O)OCC(F)(F)F)CC1n1cc(C(N)=O)c(Nc2ccc(F)cc2)n1 (mixture of isomers) [Example 5-78, 2,2,2-trifluoroethyl (3S,4R and 3R,4S)-3-{4-carbamoyl-3-[(4-fluorophenyl)amino]-1H-pyrazol-1-yl}-4-cyanopiperidine-1-carboxylate] | 0.004 µM
CCOC(=O)COC(=O)N1CC[C@@H](n2cc(C(N)=O)c(Nc3ccc(F)cc3)n2)[C@H](C#N)C1 (racemic) [Example 5-38, 2-ethoxy-2-oxoethyl (3R,4R and 3S,4S)-4-{4-carbamoyl-3-[(4-fluorophenyl)amino]-1H-pyrazol-1-yl}-3-cyanopiperidine-1-carboxylate] | 0.003 µM
N#C[C@@H]1CN(C(=O)OC2CCOC2)CC[C@H]1n1cc(C(N)=O)c(Nc2ccc(F)cc2)n1 (mixture of isomers) [Example 5-25, tetrahydrofuran-3-yl (3R,4R and 3S,4S)-4-{4-carbamoyl-3-[(4-fluorophenyl)amino]-1H-pyrazol-1-yl}-3-cyanopiperidine-1-carboxylate] | 0.012 µM
CC(C)(C)COC(=O)N1CC[C@H](n2cc(C(N)=O)c(Nc3ccc(F)cc3)n2)[C@H](C#N)C1 (racemic) [Example 5-50, 2,2-dimethylpropyl (3R,4S and 3S,4R)-4-{4-carbamoyl-3-[(4-fluorophenyl)amino]-1H-pyrazol-1-yl}-3-cyanopiperidine-1-carboxylate] | 0.625 µM
N#C[C@@H]1CN(C(=O)OC2CCOC2)CC[C@@H]1n1cc(C(N)=O)c(Nc2ccc(F)cc2)n1 (mixture of isomers) [Example 5-51, tetrahydrofuran-3-yl (3R,4S and 3S,4R)-4-{4-carbamoyl-3-[(4-fluorophenyl)amino]-1H-pyrazol-1-yl}-3-cyanopiperidine-1-carboxylate] | 0.212 µM
CC(C)(COC(=O)N1CC[C@H](n2cc(C(N)=O)c(Nc3ccc(F)cc3)n2)[C@H](C#N)C1)n1cccn1 (racemic) [Example 5-53, 2-methyl-2-(1H-pyrazol-1-yl)propyl (3R,4S and 3S,4R)-4-{4-carbamoyl-3-[(4-fluorophenyl)amino]-1H-pyrazol-1-yl}-3-cyanopiperidine-1-carboxylate] | 0.445 µM
N#C[C@@H]1CCN(C(=O)OCCN2CCOCC2)CC1n1cc(C(N)=O)c(Nc2ccc(F)cc2)n1 (mixture of isomers) [Example 5-87, 2-morpholin-4-ylethyl (3S,4R and 3R,4S)-3-{4-carbamoyl-3-[(4-fluorophenyl)amino]-1H-pyrazol-1-yl}-4-cyanopiperidine-1-carboxylate] | 0.004 µM
N#C[C@@H]1CN(C(=O)OCC(F)F)CC[C@H]1n1cc(C(N)=O)c(Nc2ccc(F)cc2)n1 (racemic) [Example 5-16, 2,2-difluoroethyl (3R,4R and 3S,4S)-4-{4-carbamoyl-3-[(4-fluorophenyl)amino]-1H-pyrazol-1-yl}-3-cyanopiperidine-1-carboxylate] | 0.008 µM

Further lines, results first:

IC50 | SMILES
0.002 µM | N#C[C@@H]1CN(Cc2cccc(F)n2)CC[C@H]1n1cc(C(N)=O)c(Nc2ccc(F)cc2)n1 (racemic) [Example 6-36, 1-{(3R,4R and 3S,4S)-3-cyano-1-[(6-fluoropyridin-2-yl)methyl]piperidin-4-yl}-3-[(4-fluorophenyl)amino]-1H-pyrazole-4-carboxamide]
0.006 µM | N#C[C@@H]1CN(Cc2cncc(F)c2)CC[C@H]1n1cc(C(N)=O)c(Nc2ccc(F)cc2)n1 (racemic) [Example 6-28, 1-{(3R,4R and 3S,4S)-3-cyano-1-[(5-fluoropyridin-3-yl)methyl]piperidin-4-yl}-3-[(4-fluorophenyl)amino]-1H-pyrazole-4-carboxamide]
0.0003 µM | N#C[C@@H]1CCOC[C@H]1n1cc(C(N)=O)c(Nc2ccccc2)n1 (single isomer, unassigned) [Example 9-38, 1-[(3R,4S or 3S,4R)-4-cyanotetrahydro-2H-pyran-3-yl]-3-(phenylamino)-1H-pyrazole-4-carboxamide]
0.0002 µM | N#C[C@@H]1CCOC[C@H]1n1cc(C(N)=O)c(Nc2ccc(Cl)c(F)c2)n1 (single isomer, unassigned) [Example 9-13, 3-[(4-chloro-3-fluorophenyl)amino]-1-[(3S,4R or 3R,4S)-4-cyanotetrahydro-2H-pyran-3-yl]-1H-pyrazole-4-carboxamide]
0.01 µM | N#C[C@H]1CCOC[C@@H]1n1cc(C(N)=O)c(Nc2ccccc2)n1 (single isomer, unassigned) [Example 9-37, 1-[(3S,4R or 3R,4S)-4-cyanotetrahydro-2H-pyran-3-yl]-3-(phenylamino)-1H-pyrazole-4-carboxamide]
0.006 µM | N#C[C@@H]1CN(Cc2cocn2)CC[C@H]1n1cc(C(N)=O)c(Nc2ccc(F)cc2)n1 (racemic) [Example 6-25, 1-[(3R,4R and 3S,4S)-3-cyano-1-(1,3-oxazol-4-ylmethyl)piperidin-4-yl]-3-[(4-fluorophenyl)amino]-1H-pyrazole-4-carboxamide]
0.0005 µM | N#C[C@@H]1CCN(Cc2cncs2)C[C@H]1n1cc(C(N)=O)c(Nc2ccc(F)cc2)n1 (racemic) [Example 7-1, 1-[(3S,4R and 3R,4S)-4-Cyano-1-(1,3-thiazol-5-ylmethyl)piperidin-3-yl]-3-[(4-fluorophenyl)amino]-1H-pyrazole-4-carboxamide]
0.026 µM | N#C[C@H]1CCOC[C@@H]1n1cc(C(N)=O)c(Nc2ccc(Cl)c(Cl)c2)n1 (single isomer, unassigned) [Example 9-10, 1-[(3R,4S or 3S,4R)-4-cyanotetrahydro-2H-pyran-3-yl]-3-[(3,4-dichlorophenyl)amino]-1H-pyrazole-4-carboxamide]
0.001 µM | Cc1ncc(CN2CC[C@@H](C#N)[C@H](n3cc(C(N)=O)c(Nc4ccc(F)cc4)n3)C2)s1 (racemic) [Example 6-18, 1-{(3S,4R and 3R,4S)-4-cyano-1-[(2-methyl-1,3-thiazol-5-yl)methyl]piperidin-3-yl}-3-[(4-fluorophenyl)amino]-1H-pyrdzole-4-carboxamide]
0.046 µM | N#C[C@@H]1CCOC[C@H]1n1cc(C(N)=O)c(Nc2ccc(C(F)(F)F)nc2)n1 (single isomer, unassigned) [Example 9-15, 1-[(3S,4R or 3R,4S)-4-cyanotetrahydro-2H-pyran-3-yl]-3-{[6-(trifluoromethyl)pyridin-3-yl]amino}-1H-pyrazole-4-carboxamide]
0.0005 µM | N#C[C@H]1CCOC[C@@H]1n1cc(C(N)=O)c(Nc2cnc3cc(Cl)ccc3c2)n1 (single isomer, unassigned) [Example 9-22, 3-[(7-chloroquinolin-3-yl)amino]-1-[(3R,4S or 3S,4R)-4-cyanotetrahydro-2H-pyran-3-yl]-1H-pyrazole-4-carboxamide]
0.016 µM | COC1CC(CN2CC[C@@H](C#N)[C@H](n3cc(C(N)=O)c(Nc4ccc(F)cc4)n3)C2)C1 (mixture of isomers) [Example 6-9, 1-{(3S,4R and 3R,4S)-4-cyano-1-[(3-methoxycyclobutyl)methyl]piperidin-3-yl}-3-[(4-fluorophenyl)amino]-1H-pyrazole-4-carboxamide]
0.021 µM | N#C[C@@H]1CCOC[C@H]1n1cc(C(N)=O)c(Nc2cnc3cc(Cl)ccc3c2)n1 (single isomer, unassigned) [Example 9-21, 3-[(7-chloroquinolin-3-yl)amino]-1-[(3S,4R or 3R,4S)-4-cyanotetrahydro-2H-pyran-3-yl]-1H-pyrazole-4-carboxamide]
